Assay results taken from patent US20150064221A1, “COMPOUNDS HAVING IMMUNOMUDULATOR ACTIVITY” (priority 2012, published 2015).

What was measured:
Rising MTD study in mice = details: mouse, in vivo, 1000 mg/kg/day, read-out: Approximate Cmax
Method: (Approximate Cmax@ [1000 mg/kg/day] was […]). Based on these studies, 10 mg was determined to be a safe starting dose in the human study.

splenic DCs = test: LPS-induced maturation of dendritic cells in vivo; design: species or system mice; details: 0.5 mg/mouse 1 hour prior to LPS
Method: Mice were given VGX-1027 (0.5 mg/mouse) or a control, and then injected with LPS (25 μg/mouse) 1 hour later. At 3 hours post LPS administration, the mice were sacrificed, and (A) % of splenic DCs with CD86 and (B) MFI of CD86 from the CD86+ cells were measured.
To determine if this effect could be translated in vivo, mice were injected with LPS and the % of DCs that express CD86, which is a maturation marker, and the MR of CD86 on the positive cells were measured. The activation of DCs via CD86 expression, and not total cytokine levels, was measured in order to ascertain the direct affects of VGX-1027 on DCs. In vivo cytokine measurement could be confounded by other cytokine producing cells, such as macrophages. The mice were injected with LPS or LPS+VGX-1027 (VGX-1027 was given 1 hour prior to LPS administration) 3 hours post injection. The spleen from these mice were extracted and analyzed for DCs with CD86 expression. […] Moreover, the VGX1027-induced decrease in the percentage of cells that expressed CD86 and was associated with a decrease in the expression of CD86 per cell (FIG. 7b). Therefore, VGX-1027 inhibits LPS-induced production of Th17-promoting inflammatory cytokines by DCs in vitro and reduces LPS-induced maturation of DCs in vivo.

[1] = tested on: systemic lupus erythematosus (SLE); test: NZB/NZW F1 model of systemic lupus erythematosus; assay type: in vivo, NZB/NZW F1 mice
Method: FIG. 19. Effects of VGX-1027 administration on survival rate (A), proteinuria (B) and serum anti-dsDNA antibodies (C) of NZB/NZW F1 mice treated for 20 weeks with either VGX-1027 or vehicle.
FIG. 20. Histopathological analysis (A) and relative phospho-STAT3 (B) levels in kidney sample of NZB/NZW F1 mice treated for 20 weeks with either VGX-1027 or vehicle.
To determine the effects of VGX-1027 on the development and progression of SLE, lupus-prone NZB/NZW F1 were treated daily with 5 mg/mouse VGX-1027 i.p. for 20 weeks, starting at 16 weeks of age. Control mice received an equal volume of vehicle. Control mice started to die at 20 weeks of age. By week 36, 62.5% of them were dead compared to the only 33.3% of treated mice (p=0.0487 by Log-rank test) (FIG. 19A). Improved survival was correlated with inhibition of renal disease. Proteinuria was assessed once a week. […] Eventually, all of the mice developed proteinuria but the delay in disease progression and prolonged survival of VGX-1027 treated animals remained evident (FIG. 19B).

[2] = tested on: Thioglycollate-elicited macrophages; test: TNF-α production of macrophages treated with TLR agonists; assay type: cell-based; details: 10 μg/ml, 48 hours
Method: (A) Thioglycollate-elicited macrophages (1×10^6/ml) were stimulated with either LPS (5 μg/ml), zymosan (ZYM, 50 μg/ml), MDP (25 μg/ml), or Poly(I:C) (50 μg/ml) in the presence or absence of VGX-1027 (10 μg/ml). TNF-α was measured 48 hours post treatment. (B) Relative phosphorylations of 1-κBα and p38 were measured at the indicated time points following stimulation with LPS (5 μg/ml). The y-axis is presented as fold change in comparison to the values obtained from LPS-treated cultures alone. * p<0.05.
Thioglycollate-elicited macrophages were treated with multiple TLR agonists for 48 hours. TNF-α production was measured. The following agonists were used to activate the various TLRs.

CAR-induced pleurisy = test: Carrageenan (CAR)-induced pleurisy; assay type: in vivo, mice; details: i.p. or oral
Method: VGX-1027 was administered via the intraperitoneum or orally, and the production of exudates volume (A), PCN infiltration (B), and MPO activity (C) in the lungs was determined. Data are means±SD from 2 independent experiments.
Next, carrageenan (CAR)-induced pleurisy, a well-known model of acute inflammation mediated by leukocytes where type-1 proinflammatory cytokines such as IL-1 and TNF-α play a major pathogenic role, was evaluated. Mice that are challenged with CAR develop acute pleurisy with turbid exudates. The amount of inflammation was measured by the volume of exudates, the number of granulocytes (PCN), and the amount of Myeloperoxidase (MPO), activity in the lungs. Anti-TNF antibodies were used as a control to compare the effects of VGX-1027 with those of TNF-α blockade, which is commonly used to treat inflammatory disorders in humans.

[3] = tested on: undifferentiated CD4 T cells; test: Proliferation of undifferentiated CD4 T cells; assay type: cell-based
Method: (A) Cell viability was measured via the MTT assay after 48 hours of treatment. (B) TNF-α levels were measured 48 hours post LPS (5 μg/ml) stimulation. (C) CD4 T cells were stimulated with either ConA (10 μg/ml) or anti-CD3/CD28 beads (10 μg/ml), and proliferation was measured via 3H-thymidine incorporation.

[4] = Plasma pharmacokinetics after intraperitoneal administration; assay type: in vivo; details: mouse, ip, mice, i.p. 20 mg/kg
Method: To determine the pharmacokinetic properties of VGX-1027, drug concentrations were analyzed in the plasma of mice. The drug was measured post intraperitoneum administration at 20 mg/kg […] in 500 mM Na2HPO4, which is a therapeutically active concentration. […] Based on the linear part of the pharmacokinetic profile, the t1/2 of VGX-1027 is approximately 90 minutes.

O=C(O)CC1CC(c2ccccc2)=NO1 (centres unmarked) [VGX-1027, 3-phenyl-4,5-dihydro-5-isoxazoleacetic acid]
Cmax (Rising MTD study in mice): ~400 µg/mL
expression of CD86 per cell (MFI) (splenic DCs): decrease
overall percentage of DCs in the spleen (splenic DCs): without affecting
% of DCs that expressed CD86 (splenic DCs; 3 hours post LPS): reduced this percentage
serum anti-dsDNA autoantibodies ([1]; 36-weeks old, p<0.0001): significant lower levels
anti-dsDNA antibodies ([1]; at 26 weeks of age): Only slightly increased levels
mice dead ([1]; by week 36, 5 mg/mouse i.p. daily for 20 weeks): 33.3%
renal histopathology mean score ([1]; end-stage nephritis, p=0.01): 1.9±0.8
relative levels of renal p-STAT3 (ELISA) ([1]; p=0.0234): significant reduction
levels of proteinuria ([1]; throughout the experimental period, p=0.0265): significantly lower
TNF-α production ([2]; LPS (5 μg/ml)): inhibited
TNF-α production ([2]; MDP (25 μg/ml)): inhibited
TNF-α production ([2]; ZYM (50 μg/ml)): inhibited
TNF-α production ([2]; poly(I:C) (50 μg/ml)): did not affect
Myeloperoxidase (MPO) activity in the lungs (CAR-induced pleurisy): effectively decreased
number of granulocytes (PCN) (CAR-induced pleurisy): effectively decreased
prevention of CAR-induced pleurisy compared with anti-TNF (CAR-induced pleurisy): as effective as anti-TNF treatment
volume of exudates (CAR-induced pleurisy): effectively decreased
proliferation ([3]; CD3/CD28 stimulation): affected neither
INF-γ production ([3]; ConA stimulation): affected neither
proliferation ([3]; ConA stimulation): affected neither
Tmax ([4]; 20 mg/kg): 2 h
concentration at 6 h ([4]; after 6 hours post injection, read-out: plasma drug concentration): < 10 µg/mL
concentration at 30 min ([4]; by 30 minutes post injection, read-out: plasma drug concentration): > 80 µg/mL
half-life ([4]; linear part of the profile): ~1.5 h
Cmax ([4]; read-out: peak plasma concentration (Cmax)): 130 µg/mL
